Results published in patent publication US8815853B2, “Pyrimidinone derivatives, preparation thereof and pharmaceutical use thereof” (Sanofi, priority 2010, dated 2014).
pIC50: −log10 of the molar value.

Assays:
Vps34 = biological target: T1, Vps34 (Homo sapiens, UniProt Q8NEB9); experiment: Phosphorylation of phosphatidylinositol (PI) with Vps34 in vitro, ADP detected by TR-FRET (HTRF Transcreener ADP kit); type: biochemical; details: 10 μM ATP, 55 μg/mL PI, about 3 nM of Vps34, 1 hour at room temperature; absolute CI50, average of 2 independent experiments; read-out: VPS34 CI 50
T1 construct: purchased Invitrogen PV5126
Procedure: Study of the Phosphorylation of Phosphatidylinositol (PI) with Vps34 In Vitro
This test is based on the detection of the ADP produced during phosphorylation of PI with Bps34 in the presence of ATP. ADP is detected by TR-FRET (Time resolved—Fluorescence Resonance Energy transfer) by using the Transcreener kit marketed by Cisbio (HTRF® Transcreener® ADP, reference 62ADPPEB).
The reaction is started with 10 μL of an ATP solution (Sigma A7699) in a buffer A and lasts for 1 hour at room temperature. […] The enzyme amount is adapted to each batch so as to form about 2 μM of ADP during the reaction. In parallel, an ADP and ATP range giving the possibility of calibration results is prepared according to the indications of the kit. Controls not containing any enzyme (negative control) or not containing any molecules (positive control) are also prepared in parallel. […] Fluorescence emission is detected on a Rubystar apparatus at 620 and 665 nm. The signal ratio is calculated by dividing the 665 nm signal by the 620 nm signal and then by multiplying by 10,000. The signal ratios are converted into an ADP concentration by using the calibration range and according to the instructions of the kit. The percentages of inhibition of the molecules are calculated relatively to the positive controls according to the formula (1−signal ratio of the molecule/signal ratio of the positive control)×100. […] With 2 independent experiments it is possible to calculate the average of the CI50s.

T1 sequence (Q8NEB9 whole entry): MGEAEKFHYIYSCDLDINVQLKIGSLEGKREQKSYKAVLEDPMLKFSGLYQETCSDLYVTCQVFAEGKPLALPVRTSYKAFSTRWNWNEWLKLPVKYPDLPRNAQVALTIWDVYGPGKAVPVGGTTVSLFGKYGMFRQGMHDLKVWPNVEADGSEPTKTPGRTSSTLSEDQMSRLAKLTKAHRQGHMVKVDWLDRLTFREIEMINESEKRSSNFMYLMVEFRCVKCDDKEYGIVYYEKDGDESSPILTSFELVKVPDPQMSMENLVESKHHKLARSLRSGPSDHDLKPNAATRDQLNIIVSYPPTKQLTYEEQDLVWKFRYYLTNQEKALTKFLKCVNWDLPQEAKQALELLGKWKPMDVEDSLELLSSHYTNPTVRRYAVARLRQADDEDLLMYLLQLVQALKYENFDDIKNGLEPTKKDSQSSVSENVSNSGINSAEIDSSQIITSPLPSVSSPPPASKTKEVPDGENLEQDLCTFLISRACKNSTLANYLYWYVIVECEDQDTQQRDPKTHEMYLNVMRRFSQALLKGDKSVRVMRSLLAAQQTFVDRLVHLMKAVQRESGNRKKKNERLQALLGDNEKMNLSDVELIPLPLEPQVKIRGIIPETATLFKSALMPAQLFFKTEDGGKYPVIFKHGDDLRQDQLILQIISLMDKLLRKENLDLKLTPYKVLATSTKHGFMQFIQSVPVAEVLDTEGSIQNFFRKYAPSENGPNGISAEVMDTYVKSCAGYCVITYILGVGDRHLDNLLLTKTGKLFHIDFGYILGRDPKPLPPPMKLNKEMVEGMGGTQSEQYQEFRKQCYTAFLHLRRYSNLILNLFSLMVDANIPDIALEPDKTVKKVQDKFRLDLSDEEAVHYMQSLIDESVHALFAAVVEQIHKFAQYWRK

With `CCC(CC)CN1c2nc(N3CCOCC3)cc(=O)n2C[C@@]1(C)C(F)(F)F` [Example 1a, (2S)-1-(2-Ethylbutyl)-2-methyl-7-(morpholin-4-yl)-2-(trifluoromethyl)-2,3-dihydroimidazo[1,2-a]pyrimidin-5(1H)-one] the pIC50 (Vps34) was > 8.00.

With `CCC(CC)CN1c2nc(N3CCOCC3)cc(=O)n2CC[C@H]1C(F)(F)F` [Example 1b, (8S)-9-(2-Ethylbutyl)-2-(morpholin-4-yl)-8-(trifluoromethyl)-6,7,8,9-tetrahydro-4H-pyrimido[1,2-a]pyrimidin-4-one] the pIC50 (Vps34) was > 8.00.

With `C[C@@]1(C(F)(F)F)Cn2c(nc(N3CCOCC3)cc2=O)N1C1CC1` [Example 2a, (2S)-1-Cyclopropyl-2-methyl-7-(morpholin-4-yl)-2-(trifluoromethyl)-2,3-dihydroimidazo[1,2-a]pyrimidin-5(1H)-one] the pIC50 (Vps34) was > 8.00.

In the case of `O=c1cc(N2CCOCC2)nc2n1CC[C@@H](C(F)(F)F)N2CC1CC1` [Example 2b, (8S)-9-(Cyclopropylmethyl)-2-(morpholin-4-yl)-8-(trifluoromethyl)-6,7,8,9-tetrahydro-4H-pyrimido[1,2-a]pyrimidin-4-one], the pIC50 (Vps34) was > 8.00.

In the case of `C[C@@]1(C(F)(F)F)Cn2c(nc(N3CCOCC3)cc2=O)N1C1CCCC1` [Example 3a, (2S)-1-Cyclopentyl-2-methyl-7-(morpholin-4-yl)-2-(trifluoromethyl)-2,3-dihydroimidazo[1,2-a]pyrimidin-5(1H)-one], the pIC50 (Vps34) was > 8.00.

In the case of `O=c1cc(N2CCOCC2)nc2n1CC[C@@H](C(F)(F)F)N2C1CCCC1` [Example 3b, (8S)-9-Cyclopentyl-2-(morpholin-4-yl)-8-(trifluoromethyl)-6,7,8,9-tetrahydro-4H-pyrimido[1,2-a]pyrimidin-4-one], the pIC50 (Vps34) was > 8.00.

A melting point of 88 °C and a pIC50 (Vps34) of 7.00 to 8.00 were found for `CC(C)OCCN1c2nc(N3CCOCC3)cc(=O)n2C[C@@]1(C)C(F)(F)F` [Example 4a, (S)-1-(2-Isopropoxy-ethyl)-2-methyl-7-(morpholin-4-yl)-2-(trifluoromethyl)-2,3-dihydroimidazo[1,2-a]pyrimidin-5(1H)-one] in this work.

A melting point of 117 °C and a pIC50 (Vps34) of 7.00 to 8.00 were found for `O=c1cc(N2CCOCC2)nc2n1CC[C@@H](C(F)(F)F)N2CCO` [Example 4b, (8S)-9-(2-Hydroxyethyl)-2-(morpholin-4-yl)-8-(trifluoromethyl)-6,7,8,9-tetrahydro-4H-pyrimido[1,2-a]pyrimidin-4-one] in this work.

A melting point of 72 °C and a pIC50 (Vps34) of 7.00 to 8.00 were found for `CC(C)(O)CN1c2nc(N3CCOCC3)cc(=O)n2C[C@@]1(C)C(F)(F)F` [Example 5a, (S)-1-(2-Hydroxy-2-methyl-propyl)-2-methyl-7-(morpholin-4-yl)-2-(trifluoromethyl)-2,3-dihydroimidazo[1,2-a]pyrimidin-5(1H)-one] in this work.

In the case of `COC(C)(C)CN1c2nc(N3CCOCC3)cc(=O)n2C[C@@]1(C)C(F)(F)F` [Example 6a, (S)-1-(2-Methoxy-2-methyl-propyl)-2-methyl-7-(morpholin-4-yl)-2-(trifluoromethyl)-2,3-dihydroimidazo[1,2-a]pyrimidin-5(1H)-one], the pIC50 (Vps34) was > 8.00.

A melting point of 107.8 °C and a pIC50 (Vps34) of 7.00 to 8.00 were found for `O=c1cc(N2CCOCC2)nc2n1CC[C@@H](C(F)(F)F)N2CCOCC(F)(F)F` [Example 6b, (S)-2-(Morpholin-4-yl)-9-[2-(2,2,2-trifluoro-ethoxy)-ethyl]-8-(trifluoromethyl)-6,7,8,9-tetrahydro-4H-pyrimido[1,2-a]pyrimidin-4-one] in this work.

In the case of `CC(C)OCCN1c2nc(N3CCOCC3)cc(=O)n2CC1(C)C` [Example 7a, 1-(2-Isopropoxyethyl)-2,2-dimethyl-7-(morpholin-4-yl)-2,3-dihydroimidazo[1,2-a]pyrimidin-5(1H)-one], the pIC50 (Vps34) was < 7.00.

With `CC(C)OCCN1c2nc(N3CCOCC3)c(F)c(=O)n2CC[C@H]1C(F)(F)F` [Example 7b, (8S)-3-Fluoro-9-(2-isopropoxy-ethyl)-2-(morpholin-4-yl)-8-(trifluoromethyl)-6,7,8,9-tetrahydro-4H-pyrimido[1,2-a]pyrimidin-4-one] the melting point was 117 °C and the pIC50 (Vps34) was > 8.00.

With `COCCN1c2nc(N3CCOCC3)cc(=O)n2CC12CCCC2` [Example 8a, 1′-(2-Methoxyethyl)-7′-morpholin-4-ylspiro[cyclopentane-1,2′-imidazo[1,2-a]pyrimidin]-5′-one] the pIC50 (Vps34) was < 7.00.

For `CC(C)(O)CN1c2nc(N3CCOCC3)cc(=O)n2CC[C@H]1C(F)(F)F` [Example 8b, (8S)-9-(2-Hydroxy-2-methylpropyl)-2-(morpholin-4-yl)-8-(trifluoromethyl)-6,7,8,9-tetrahydro-4H-pyrimido[1,2-a]pyrimidin-4-one], the pIC50 (Vps34) was > 8.00.

A pIC50 (Vps34) of 7.00 to 8.00 was found for `CC(C)OCCN1c2nc(N3CCOCC3)cc(=O)n2CC12CCCC2` [Example 9a, 1′-(2-isopropoxyethyl)-7′-morpholin-4-ylspiro[cyclopentane-1,2′-imidazo[1,2-a]pyrimidin]-5′-one] in this work.

For `Cc1c(N2CCOCC2)nc2n(c1=O)CC[C@@H](C(F)(F)F)N2CC(C)(C)O` [Example 9b, (S)-9-(2-Hydroxy-2-methyl-propyl)-3-methyl-2-(morpholin-4-yl)-8-trifluoromethyl-6,7,8,9-tetrahydro-4H-pyrimido[1,2-a]pyrimidin-4-one], the melting point was 170 °C and the pIC50 (Vps34) was < 7.00.

A melting point of 172 °C and a pIC50 (Vps34) of 7.00 to 8.00 were found for `COC(C)(C)CN1c2nc(N3CCOCC3)cc(=O)n2CC[C@H]1C(F)(F)F` [Example 10b, (S)-9-(2-Methoxy-2-methyl-propyl)-2-(morpholin-4-yl)-8-trifluoromethyl-6,7,8,9-tetrahydro-4H-pyrimido[1,2-a]pyrimidin-4-one] in this work.

In the case of `CC(C)OCCN1c2nc(N3CCOCC3)cc(=O)n2CC[C@@]1(C)C(F)(F)F` [Example 11Ab, (8S)-8-Methyl-2-(morpholin-4-yl)-9-(2-(propan-2-yloxy)ethyl)-8-(trifluoromethyl)-6,7,8,9-tetrahydro-4H-pyrimido[1,2-a]pyrimidin-4-one], the pIC50 (Vps34) was > 8.00.

In the case of `CC(C)OCCN1c2nc(N3CCOCC3)cc(=O)n2CC[C@]1(C)C(F)(F)F` [Example 11Bb, (8R)-8-Methyl-2-(morpholin-4-yl)-9-(2-(propan-2-yloxy)ethyl)-8-(trifluoromethyl)-6,7,8,9-tetrahydro-4H-pyrimido[1,2-a]pyrimidin-4-one], the pIC50 (Vps34) was < 7.00.

A pIC50 (Vps34) of 7.00 to 8.00 was found for `COCCN1c2nc(N3CCOCC3)cc(=O)n2CCC1(C)C` [Example 12b, 9-(2-Methoxyethyl)-8,8-dimethyl-2-(morpholin-4-yl)-6,7,8,9-tetrahydro-4H-pyrimido[1,2-a]pyrimidin-4-one] in this work.

A pIC50 (Vps34) of 7.00 to 8.00 was found for `CC(C)OCCN1c2nc(N3CCOCC3)cc(=O)n2CCC1(C)C` [Example 13b, 9-(2-Isopropoxyethyl)-8,8-dimethyl-2-(morpholin-4-yl)-6,7,8,9-tetrahydro-4H-pyrimido[1,2-a]pyrimidin-4-one] in this work.

For `COCCN1CC(C)(C)Cn2c1nc(N1CCOCC1)cc2=O` [Example 14b, 9-(2-Methoxyethyl)-7,7-dimethyl-2-(morpholin-4-yl)-6,7,8,9-tetrahydro-4H-pyrimido[1,2-a]pyrimidin-4-one], the pIC50 (Vps34) was < 7.00.

With `CC(C)OCCN1CC(C)(C)Cn2c1nc(N1CCOCC1)cc2=O` [Example 15b, 9-(2-Isopropoxyethyl)-7,7-dimethyl-2-(morpholin-4-yl)-6,7,8,9-tetrahydro-4H-pyrimido[1,2-a]pyrimidin-4-one] the pIC50 (Vps34) was < 7.00.

A pIC50 (Vps34) of 7.00 to 8.00 was found for `CC(C)OCCN1CC2(CC2)Cn2c1nc(N1CCOCC1)cc2=O` [Example 16b, 1-(2-Isopropoxyethyl)-8′-(morpholin-4-yl)-1′,2′-dihydro-spiro[cyclopropane-1,3′-pyrimido[1,2-a]pyrimidin]-6′-one] in this work.

For `CS(=O)(=O)CCN1c2nc(N3CCOCC3)cc(=O)n2CC[C@H]1C(F)(F)F` [Example 17b, (8S)-9-(2-Methanesulfonyl-ethyl)-2-morpholin-4-yl-8-trifluoromethyl-6,7,8,9-tetrahydro-pyrimido[1,2-a]pyrimidin-4-one], the melting point was 96 °C and the pIC50 (Vps34) was > 8.00.
